Results as given in the supplement of paper PMC10307832.

Legend:
Experiment in all cases: relative viability (nuclei count vs DMSO), 5 days (fraction); higher = more cells survive
[1] = compound: CN(NC(=O)CC(=O)NN(C)C(=S)c1ccccc1)C(=S)c1ccccc1 [Elesclomol]
How it was run: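 Viability is treated-well nuclei as a fraction of vehicle-well nuclei, reported as the median across plates. Before counting, lung cancer cell lines were kept overnight at 37 °C in 1536-well plates, pinned with five √10-spaced library-drug doses on vehicle-anchored plates, and left 5 days without medium change, then fixed, permeabilised and Hoechst-stained in one step, imaged at 4× and counted by MetaXpress. A plate passed only if control CV was below 25% and at least one doubling occurred.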

[2] = compound: CN(NC(=O)CC(=O)NN(C)C(=S)c1ccccc1)C(=S)c1ccccc1 [Elesclomol] + Nc1nc2[nH]cc(CCc3ccc(C(=O)N[C@@H](CCC(=O)O)C(=O)O)cc3)c2c(=O)[nH]1 [Pemetrexed] (partner 0.2 µM)
How it was run: (§1)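 The day after seeding in 1536-well plates, lung cancer cell lines were treated by pin tool with a single drug, or with a fixed anchor-drug dose together with five library-drug doses (not always all listed) in √10 steps. After 5 days, a combined fix-and-stain solution (final 0.05% Triton X-100, 1% formaldehyde, 1 ug/ml Hoechst) was added. Nuclei counted on 4× images gave relative viability as treated counts over vehicle counts, reported as the median of duplicate plates.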

[3] = compound: CN(NC(=O)CC(=O)NN(C)C(=S)c1ccccc1)C(=S)c1ccccc1 [Elesclomol] + COc1cccc2cc(-c3nc([C@H]4CC[C@H](C(=O)O)CC4)n4ncnc(N)c34)[nH]c12 [OSI-027] (partner 0.5 µM)
How it was run: as §1

[4] = compound: CN(NC(=O)CC(=O)NN(C)C(=S)c1ccccc1)C(=S)c1ccccc1 [Elesclomol] + O=C(CCCCCCC(=O)Nc1ccccc1)NO [Vorinostat] (partner 1 µM)
How it was run: as §1

[5] = compound: CN(NC(=O)CC(=O)NN(C)C(=S)c1ccccc1)C(=S)c1ccccc1 [Elesclomol] + NC(=O)Nc1cc(-c2cccc(F)c2)sc1C(=O)N[C@H]1CCCNC1 [AZD7762] (partner 0.2 µM)
How it was run: as §1

[6] = compound: CN(NC(=O)CC(=O)NN(C)C(=S)c1ccccc1)C(=S)c1ccccc1 [Elesclomol] + CC(=O)Nc1cccc(-n2c(=O)n(C3CC3)c(=O)c3c(Nc4ccc(I)cc4F)n(C)c(=O)c(C)c32)c1 [Trametinib] (partner 0.02 µM)
How it was run: as §1

[7] = compound: CN(NC(=O)CC(=O)NN(C)C(=S)c1ccccc1)C(=S)c1ccccc1 [Elesclomol] + Nc1ncn([C@H]2C[C@H](O)[C@@H](CO)O2)c(=O)n1 [Decitabine] (partner 2 µM)
How it was run: as §1

[8] = compound: CN(NC(=O)CC(=O)NN(C)C(=S)c1ccccc1)C(=S)c1ccccc1 [Elesclomol] + CC(=O)c1c(C)c2cnc(Nc3ccc(N4CCNCC4)cn3)nc2n(C2CCCC2)c1=O [Palbociclib] (partner 0.5 µM)
How it was run: as §1

[9] = compound: CN(NC(=O)CC(=O)NN(C)C(=S)c1ccccc1)C(=S)c1ccccc1 [Elesclomol] + Cc1cc(Nc2cc(N3CCN(C)CC3)nc(Sc3ccc(NC(=O)C4CC4)cc3)n2)n[nH]1 [Tozasertib] (partner 0.1 µM)
How it was run: as §1

[10] = compound: CN(NC(=O)CC(=O)NN(C)C(=S)c1ccccc1)C(=S)c1ccccc1 [Elesclomol] + O=C(c1cc(Cc2n[nH]c(=O)c3ccccc23)ccc1F)N1CCN(C(=O)C2CC2)CC1 [Olaparib] (partner 8 µM)
How it was run: as §1

[11] = compound: CN(NC(=O)CC(=O)NN(C)C(=S)c1ccccc1)C(=S)c1ccccc1 [Elesclomol] + Cc1nc(Nc2ncc(C(=O)Nc3c(C)cccc3Cl)s2)cc(N2CCN(CCO)CC2)n1 [Dasatinib] (partner 0.075 µM)
How it was run: as §1

[12] = compound: CN(NC(=O)CC(=O)NN(C)C(=S)c1ccccc1)C(=S)c1ccccc1 [Elesclomol] + N=C(N)NC(=N)NCCc1ccccc1 [Phenformin] (partner 250 µM)
How it was run: as §1

[13] = compound: CN(NC(=O)CC(=O)NN(C)C(=S)c1ccccc1)C(=S)c1ccccc1 [Elesclomol] + COc1cc2c(Oc3ccc(NC(=O)C4(C(=O)Nc5ccc(F)cc5)CC4)cc3F)ccnc2cc1OCCCN1CCOCC1 [Foretinib] (partner 0.25 µM)
How it was run: as §1

[14] = compound: CN(NC(=O)CC(=O)NN(C)C(=S)c1ccccc1)C(=S)c1ccccc1 [Elesclomol] + CCNC(=O)c1noc(-c2cc(C(C)C)c(O)cc2O)c1-c1ccc(CN2CCOCC2)cc1 [Luminespib] (partner 0.01 µM)
How it was run: as §1

## NCI-H1648
[1]; 0.003162 µM
  relative viability: 0.606
[1]; 0.01 µM
  relative viability: 0.725
[1]; 0.03162 µM
  relative viability: 0.827
[1]; 0.1 µM
  relative viability: 0.76
[2]; first compound 0.003162 µM
  relative viability: 0.7
[2]; first compound 0.01 µM
  relative viability: 0.599
[2]; first compound 0.03162 µM
  relative viability: 0.752
[2]; first compound 0.1 µM
  relative viability: 0.673
[3]; first compound 0.003162 µM
  relative viability: 0.263
[3]; first compound 0.01 µM
  relative viability: 0.276
[3]; first compound 0.03162 µM
  relative viability: 0.224
[3]; first compound 0.1 µM
  relative viability: 0.295
[4]; first compound 0.003162 µM
  relative viability: 0.338
[4]; first compound 0.01 µM
  relative viability: 0.416
[4]; first compound 0.03162 µM
  relative viability: 0.385
[4]; first compound 0.1 µM
  relative viability: 0.313
[5]; first compound 0.003162 µM
  relative viability: 0.581
[5]; first compound 0.01 µM
  relative viability: 0.686
[5]; first compound 0.03162 µM
  relative viability: 0.61
[5]; first compound 0.1 µM
  relative viability: 0.622
[6]; first compound 0.003162 µM
  relative viability: 0.555
[6]; first compound 0.01 µM
  relative viability: 0.415
[6]; first compound 0.03162 µM
  relative viability: 0.46
[6]; first compound 0.1 µM
  relative viability: 0.39
[7]; first compound 0.003162 µM
  relative viability: 0.551
[7]; first compound 0.01 µM
  relative viability: 0.469
[7]; first compound 0.03162 µM
  relative viability: 0.509
[7]; first compound 0.1 µM
  relative viability: 0.453
[8]; first compound 0.003162 µM
  relative viability: 0.301
[8]; first compound 0.01 µM
  relative viability: 0.285
[8]; first compound 0.03162 µM
  relative viability: 0.266
[8]; first compound 0.1 µM
  relative viability: 0.253
[9]; first compound 0.003162 µM
  relative viability: 0.379
[9]; first compound 0.01 µM
  relative viability: 0.409
[9]; first compound 0.03162 µM
  relative viability: 0.506
[9]; first compound 0.1 µM
  relative viability: 0.54
[10]; first compound 0.003162 µM
  relative viability: 0.675
[10]; first compound 0.01 µM
  relative viability: 0.753
[10]; first compound 0.03162 µM
  relative viability: 0.835
[10]; first compound 0.1 µM
  relative viability: 0.796

## NCI-H2342
[1]; 0.003162 µM
  relative viability: 0.865
[1]; 0.01 µM
  relative viability: 1.02
[1]; 0.03162 µM
  relative viability: 0.571
[1]; 0.1 µM
  relative viability: 0.612
[11]; first compound 0.003162 µM
  relative viability: 0.318
[11]; first compound 0.01 µM
  relative viability: 0.305
[11]; first compound 0.03162 µM
  relative viability: 0.247
[11]; first compound 0.1 µM
  relative viability: 0.267
[2]; first compound 0.003162 µM
  relative viability: 0.732
[2]; first compound 0.01 µM
  relative viability: 0.634
[2]; first compound 0.03162 µM
  relative viability: 0.728
[2]; first compound 0.1 µM
  relative viability: 0.705
[3]; first compound 0.003162 µM
  relative viability: 0.648
[3]; first compound 0.01 µM
  relative viability: 0.583
[3]; first compound 0.03162 µM
  relative viability: 0.395
[3]; first compound 0.1 µM
  relative viability: 0.301
[4]; first compound 0.003162 µM
  relative viability: 0.732
[4]; first compound 0.01 µM
  relative viability: 0.8
[4]; first compound 0.03162 µM
  relative viability: 0.757
[4]; first compound 0.1 µM
  relative viability: 0.771
[12]; first compound 0.003162 µM
  relative viability: 0.482
[12]; first compound 0.01 µM
  relative viability: 0.596
[12]; first compound 0.03162 µM
  relative viability: 0.355
[12]; first compound 0.1 µM
  relative viability: 0.292
[5]; first compound 0.003162 µM
  relative viability: 0.385
[5]; first compound 0.01 µM
  relative viability: 0.461
[5]; first compound 0.03162 µM
  relative viability: 0.4
[5]; first compound 0.1 µM
  relative viability: 0.441
[6]; first compound 0.003162 µM
  relative viability: 0.877
[6]; first compound 0.01 µM
  relative viability: 0.839
[6]; first compound 0.03162 µM
  relative viability: 0.756
[6]; first compound 0.1 µM
  relative viability: 0.616
[13]; first compound 0.003162 µM
  relative viability: 1.08
[13]; first compound 0.01 µM
  relative viability: 0.915
[13]; first compound 0.03162 µM
  relative viability: 0.437
[13]; first compound 0.1 µM
  relative viability: 0.344
[7]; first compound 0.003162 µM
  relative viability: 0.697
[7]; first compound 0.01 µM
  relative viability: 0.866
[7]; first compound 0.03162 µM
  relative viability: 0.784
[7]; first compound 0.1 µM
  relative viability: 0.602
[8]; first compound 0.003162 µM
  relative viability: 0.495
[8]; first compound 0.01 µM
  relative viability: 0.489
[8]; first compound 0.03162 µM
  relative viability: 0.517
[8]; first compound 0.1 µM
  relative viability: 0.411
[9]; first compound 0.003162 µM
  relative viability: 0.466
[9]; first compound 0.01 µM
  relative viability: 0.476
[9]; first compound 0.03162 µM
  relative viability: 0.332
[9]; first compound 0.1 µM
  relative viability: 0.324
[10]; first compound 0.003162 µM
  relative viability: 0.476
[10]; first compound 0.01 µM
  relative viability: 0.37
[10]; first compound 0.03162 µM
  relative viability: 0.434
[10]; first compound 0.1 µM
  relative viability: 0.367
[14]; first compound 0.003162 µM
  relative viability: 0.665
[14]; first compound 0.01 µM
  relative viability: 0.551
[14]; first compound 0.03162 µM
  relative viability: 0.391
[14]; first compound 0.1 µM
  relative viability: 0.322

## NCI-H522
[1]; 0.003162 µM
  relative viability: 1.03
[1]; 0.01 µM
  relative viability: 0.877
[1]; 0.03162 µM
  relative viability: 0.801
[1]; 0.1 µM
  relative viability: 0.53
[11]; first compound 0.003162 µM
  relative viability: 0.842
[11]; first compound 0.01 µM
  relative viability: 0.812
[11]; first compound 0.03162 µM
  relative viability: 0.868
[11]; first compound 0.1 µM
  relative viability: 0.454
[2]; first compound 0.003162 µM
  relative viability: 1.08
[2]; first compound 0.01 µM
  relative viability: 1.09
[2]; first compound 0.03162 µM
  relative viability: 1.18
[2]; first compound 0.1 µM
  relative viability: 0.641
[3]; first compound 0.003162 µM
  relative viability: 0.716
[3]; first compound 0.01 µM
  relative viability: 0.62
[3]; first compound 0.03162 µM
  relative viability: 0.634
[3]; first compound 0.1 µM
  relative viability: 0.457
[4]; first compound 0.003162 µM
  relative viability: 0.927
[4]; first compound 0.01 µM
  relative viability: 0.888
[4]; first compound 0.03162 µM
  relative viability: 0.862
[4]; first compound 0.1 µM
  relative viability: 0.604
[12]; first compound 0.003162 µM
  relative viability: 0.681
[12]; first compound 0.01 µM
  relative viability: 0.736
[12]; first compound 0.03162 µM
  relative viability: 0.668
[12]; first compound 0.1 µM
  relative viability: 0.549
[5]; first compound 0.003162 µM
  relative viability: 0.955
[5]; first compound 0.01 µM
  relative viability: 0.857
[5]; first compound 0.03162 µM
  relative viability: 0.756
[5]; first compound 0.1 µM
  relative viability: 0.518
[6]; first compound 0.003162 µM
  relative viability: 0.698
[6]; first compound 0.01 µM
  relative viability: 0.792
[6]; first compound 0.03162 µM
  relative viability: 0.821
[6]; first compound 0.1 µM
  relative viability: 0.403
[7]; first compound 0.003162 µM
  relative viability: 0.693
[7]; first compound 0.01 µM
  relative viability: 0.649
[7]; first compound 0.03162 µM
  relative viability: 0.7
[7]; first compound 0.1 µM
  relative viability: 0.469
[8]; first compound 0.003162 µM
  relative viability: 1.16
[8]; first compound 0.01 µM
  relative viability: 0.819
[8]; first compound 0.03162 µM
  relative viability: 0.894
[8]; first compound 0.1 µM
  relative viability: 0.632
[9]; first compound 0.003162 µM
  relative viability: 0.563
[9]; first compound 0.01 µM
  relative viability: 0.608
[9]; first compound 0.03162 µM
  relative viability: 0.567
[9]; first compound 0.1 µM
  relative viability: 0.465
[10]; first compound 0.003162 µM
  relative viability: 0.617
[10]; first compound 0.01 µM
  relative viability: 0.812
[10]; first compound 0.03162 µM
  relative viability: 0.618
[10]; first compound 0.1 µM
  relative viability: 0.431
[14]; first compound 0.003162 µM
  relative viability: 0.958
[14]; first compound 0.01 µM
  relative viability: 1.02
[14]; first compound 0.03162 µM
  relative viability: 1.06
[14]; first compound 0.1 µM
  relative viability: 0.625
